From patent US20200299791A1, “Process for the Production of a Saccharide Product from an Aqueous Solution” (Avantium Knowledge Centre B.V., priority 2015, published 2020) come the findings set out here.

Molecules are shown by their SMILES.

The nature of series [1]: Partition of model by-product compounds between Carrier liquid 1 (paraffin oil) and organic solvent. In kind it is physicochemical. The conditions noted are these: log {[compound]carrier liquid/[compound]organic solvent}, 2 mL solvent + 3 mL carrier liquid solution, shaken 60 min at room temperature. The method, then:
(§1) Six compounds were dissolved in two different carrier liquids. The six compounds were exemplary for the by-products that may be obtained when wood is subjected to hydrolysis by the reaction of concentrated hydrochloric acid and that may be obtained when the hydrolyzate thus obtained in treated with the carrier liquid. The compounds were • a) betulin, a triterpene having a pentacyclic structure and two hydroxyl groups, • b) abietic acid, i.e. a diterpene compound derived from four isoprene units and a having one carboxylic acid group, • c) linoleic acid, a fatty aid having 18 carbon atoms and two unsaturated bonds, • d) 1-eicosanol, a linear alkanol having 20 carbon atoms, • e) sitosterol, a phytosterol with a chemical structure similar to cholesterol, and • f) limonene, a cyclic terpene having two unsaturated bonds.
Carrier liquid 1 is a paraffin oil with a boiling range of 388 to 709° C. and a kinematic viscosity of 481 mm^2/s at 40° C. and a kinematic viscosity of about 31 at 100° C. (ASTM D445). Carrier liquid 1 is immiscible with water.
(§2) In each experiment, 2 mL of an organic solvent was added to 3 mL of the carrier liquid solutions. The admixture obtained were shaken for 60 min at room temperature. The concentration of each compound in each of the carrier liquids was determined and the partition coefficient was calculated. By partition coefficient P is understood the ratio of concentrations of each of the compounds in an organic solvent and in a carrier liquid. The partition coefficient is expressed as
(§3) log P, being log {[compound]carrier liquid/[compound]organic solvent}.
(§4) The partition coefficients are shown in Table 2 for Carrier liquid 1 and in Table 3 for Carrier liquid 2.

A short description of series [2]: Partition of model by-product compounds between Carrier liquid 2 (poly-alpha-olefin) and organic solvent. As to conditions: log {[compound]carrier liquid/[compound]organic solvent}, 2 mL solvent + 3 mL carrier liquid solution, shaken 60 min at room temperature. Type of series: physicochemical. The procedure: as §1
Carrier liquid 2 is a poly-alpha-olefin having a kinematic viscosity of 1240 mm^2/s at 40° C. and a kinematic viscosity of 100 mm^2/s at 100° C. (ASTM D445). It has a flash point of 283° C. (ASTM D92). Carrier liquid 2 is immiscible with water.
as §2, §3, §4

`CC[C@H](CC[C@@H](C)[C@H]1CC[C@H]2[C@@H]3CC=C4C[C@@H](O)CC[C@]4(C)[C@H]3CC[C@]12C)C(C)C` [sitosterol]: the “Partition coefficient with Carrier liquid 1, Log P” value in series [1] (Exp. No. 1, solvent methanol) was 0.35; in series [1] (Exp. No. 2, solvent butanol), −0.45; in series [1] (Exp. No. 3, solvent acetone) it was 0.16. Also, the “Partition coefficient with Carrier liquid 2, Log P” value is recorded as −0.05 in series [2] (Exp. No. 4, solvent methanol); −0.63 in series [2] (Exp. No. 5, solvent butanol); −0.10 in series [2] (Exp. No. 6, solvent acetone).
Turning to `C=C(C)[C@@H]1CC[C@]2(CO)CC[C@]3(C)[C@H](CC[C@@H]4[C@@]5(C)CC[C@H](O)C(C)(C)[C@@H]5CC[C@]43C)[C@@H]12` [betulin], the “Partition coefficient with Carrier liquid 2, Log P” value in series [2] (Exp. No. 4, solvent methanol) was −0.36; in series [2] (Exp. No. 5, solvent butanol), −1.09; in series [2] (Exp. No. 6, solvent acetone), −1.03.
